Here are results for eight compounds from ChEMBL document CHEMBL1142474, “Structure-activity relationship studies of imidazo[1,2-c]pyrimidine derivatives as potent and orally effective Syk family kinases inhibitors” (Bioorg Med Chem, 2008).

For one data set, the system named is PBMC. Put plainly: Inhibition of IL2 production in PHA-stimulated human PBMC after 24 hrs by ELISA. In general terms: An ELISA detects its analyte on a solid surface through an enzyme-linked reagent.
The nature of data set [1]: Apparent permeability across human Caco-2 cells. In kind it is ADME, cell-based.
The next data set relates to Blood. In words: Inhibition of IL2 production in PHA-stimulated human whole blood after 24 hrs by ELISA.
Data set [2] has as its system Mus musculus. Put plainly: Suppression of concanavalin A-induced IL2 production in po dosed ICR mouse administered 1 hr before concanavalin A challenge relative to control.
In data set [3] the test system is Mus musculus. In words: Plasma concentration in mouse at 10 mg/kg, po. In kind it is ADME, organism-based. Details: dose 10 mg/kg, route oral. Particulars: in vivo.
The test system of data set [4] is Mus musculus. Put plainly: Plasma concentration in mouse at 30 mg/kg, po. Set-up: dose 30 mg/kg, route oral. The class given is ADME, organism-based. Particulars: in vivo.
Data set [5] relates to Mus musculus. Put plainly: Plasma concentration in mouse at 100 mg/kg, po. Details: dose 100 mg/kg, route oral. Particulars: in vivo. The class given is ADME, organism-based.
The target of data set [6] is Tyrosine-protein kinase SYK (Homo sapiens, UniProt P43405).
Description: Inhibition of human Syk expressed in Sf9 cells
Data set [7] deals with T1, Tyrosine-protein kinase ZAP-70 (Homo sapiens, UniProt P43403).
T1 sequence (P43403 whole entry): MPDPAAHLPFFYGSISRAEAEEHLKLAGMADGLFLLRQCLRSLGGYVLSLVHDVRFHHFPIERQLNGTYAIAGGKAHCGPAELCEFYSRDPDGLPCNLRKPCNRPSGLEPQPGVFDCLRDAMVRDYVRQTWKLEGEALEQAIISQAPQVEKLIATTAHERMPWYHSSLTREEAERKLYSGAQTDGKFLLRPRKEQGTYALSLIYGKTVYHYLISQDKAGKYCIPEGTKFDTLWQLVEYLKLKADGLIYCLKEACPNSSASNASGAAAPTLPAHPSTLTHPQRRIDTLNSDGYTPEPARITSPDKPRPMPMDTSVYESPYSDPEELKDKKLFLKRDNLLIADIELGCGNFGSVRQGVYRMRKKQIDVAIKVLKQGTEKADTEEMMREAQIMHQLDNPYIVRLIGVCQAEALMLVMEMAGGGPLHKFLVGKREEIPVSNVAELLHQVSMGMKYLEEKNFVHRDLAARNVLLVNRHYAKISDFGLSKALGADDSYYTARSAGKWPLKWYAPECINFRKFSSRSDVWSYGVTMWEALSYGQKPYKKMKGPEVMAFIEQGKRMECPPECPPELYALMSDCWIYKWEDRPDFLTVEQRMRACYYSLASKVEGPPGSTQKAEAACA
In words: Inhibition of human ZAP70 expressed in Sf9 cells.

Data set [8] can be described thus: Solubility in water. In kind it is physicochemical.
Data set [9] deals with Mus musculus. Put plainly: Plasma concentration in mouse at 3 mg/kg, po. In kind it is ADME, organism-based. Set-up: dose 3 mg/kg, route oral. Particulars: in vivo.
In data set [10] the test system is Mus musculus. In words: Suppression of anti-dinitrophenyl-coupled IgE-induced passive cutaneous anaphylaxis reaction in po dosed ICR mouse administered 1 hr before antigen challenge relative to control. The class given is functional, organism-based.

Structures are written as SMILES. ≈ marks a conversion by molar mass, not a printed value. Calls of active or inactive are those of the source. No cut-off for these calls is given here.

For `COc1cc(Nc2nc(N[C@H]3CCCC[C@H]3N)n3cc(-c4ccccc4)nc3c2C(N)=O)cc(OC)c1`, the IC50 (as a rule, the concentration at which inhibition is half-maximal) with PBMC was determined as 200 nM; in the data set with Blood, 2000 nM. The Papp (usually the rate of passage across a membrane or cell layer, normalised by area and donor concentration) in data set [1] was determined as 0.43 ×10⁻⁶ cm/s.
Regarding `COc1cc(Nc2nc(N[C@H]3CCCC[C@H]3N)n3ncnc3c2C(N)=O)cc(OC)c1`, the values for the IC50 in the data set on PBMC and in the data set with Blood were 76 nM and 480 nM, respectively. Besides, in [1], the Papp stood at 0.33 ×10⁻⁶ cm/s. Further, the result with Mus musculus [2] was inactive.
Regarding `COc1cc(Nc2nc(N[C@H]3CCCC[C@H]3N)n3cnnc3c2C(N)=O)cc(OC)c1`, the Cp was determined as 28.4 ng/mL with Mus musculus [3], 26.5 ng/mL in the data set on Mus musculus [4] and 45.2 ng/mL in the data set with Mus musculus [5]. The IC50 in the data set with PBMC came out at 46 nM; in the data set on Blood, 440 nM. Further, in [1], the Papp is 0.01 ×10⁻⁶ cm/s. Further, the outcome with Mus musculus [2] was inactive.
For the compound `COc1ccccc1Nc1nc(N[C@H]2CCCC[C@H]2N)n2ccnc2c1C(N)=O` (relative stereo), the IC50 in data set [6] and in [7] was over 10000 nM in each case.
On to `NC(=O)c1c(Nc2cc(F)cc(F)c2)nc(N[C@H]2CCCC[C@H]2N)n2ccnc12` (relative stereo), for which the IC50 in the data set with PBMC was determined as 150 nM; in the data set with Blood, 3000 nM.
With `Cc1cc(C)cc(Nc2nc(N[C@H]3CCCC[C@H]3N)n3ccnc3c2C(N)=O)c1` (relative stereo), the IC50 in the data set with PBMC is 200 nM; in the data set with Blood, 1000 nM.
For the compound `COc1cc(Nc2nc(N[C@H]3CCCC[C@H]3N)n3ccnc3c2C(N)=O)cc(OC)c1` (relative stereo), the Cp with Mus musculus [3] is 191 ng/mL; with Mus musculus [9], 40 ng/mL; with Mus musculus [4] it was 770 ng/mL; with Mus musculus [5], 4031 ng/mL. Besides, in data set [8], the solubility (commonly the dissolved amount per volume that the medium holds) is 930 µg/mL (≈ 2190 µM). In addition, the IC50 in the data set with PBMC was determined as 58 nM; in the data set with Blood it was 280 nM. Besides, the Papp in [1] worked out at 3.33 ×10⁻⁶ cm/s. The Activity entry with Mus musculus [2] and in the data set with Mus musculus [10] was “Dose-dependent effect” in each case.
For the compound `CN[C@@H]1C[C@H]2O[C@@](C)([C@@H]1OC)n1c3ccccc3c3c4c(c5c6ccccc6n2c5c31)C(=O)NC4` [STAUROSPORINE], the IC50 with PBMC was 16 nM.
